Test results: the NIST ThermoML archive (doi:10.1016/j.jct.2019.05.011)
Numbers after ± are expanded uncertainties.

Assay: activity coefficient (dimensionless); of the first substance listed, at infinite dilution; xn = mol fraction of the nth substance listed
Settings: 101.33 kPa, Liquid, Chromatography, x1 = 0

Row | Compound | activity coefficient (313.15 K) | activity coefficient (323.15 K) | activity coefficient (333.15 K) | activity coefficient (343.15 K) | activity coefficient (298.15 K)
1 | CC(C)CC(C)(C)C [2,2,4-trimethylpentane] + CC(CC(C)(C)C)CP(=O)([O-])CC(C)CC(C)(C)C.CCCCCCCCCCCCCC[P+](CCCCCC)(CCCCCC)CCCCCC | 0.92 ± 0.06 | 0.96 ± 0.06 | 1.04 ± 0.07 | 1.14 ± 0.07 | 
2 | CCCCCCCCC [nonane] + CC(CC(C)(C)C)CP(=O)([O-])CC(C)CC(C)(C)C.CCCCCCCCCCCCCC[P+](CCCCCC)(CCCCCC)CCCCCC | 1.04 ± 0.07 | 1.11 ± 0.07 | 1.23 ± 0.08 | 1.25 ± 0.08 | 
3 | CCc1ccccc1 [ethylbenzene] + CC(CC(C)(C)C)CP(=O)([O-])CC(C)CC(C)(C)C.CCCCCCCCCCCCCC[P+](CCCCCC)(CCCCCC)CCCCCC | 0.57 ± 0.04 | 0.6 ± 0.04 | 0.65 ± 0.04 | 0.68 ± 0.05 | 
4 | CCCCO [butan-1-ol] + CC(CC(C)(C)C)CP(=O)([O-])CC(C)CC(C)(C)C.CCCCCCCCCCCCCC[P+](CCCCCC)(CCCCCC)CCCCCC |  |  | 0.11 ± 0.03 | 0.12 ± 0.03 | 
5 | CCC(C)(C)C [2,2-dimethylbutane] + CC(CC(C)(C)C)CP(=O)([O-])CC(C)CC(C)(C)C.CCCCCCCCCCCCCC[P+](CCCCCC)(CCCCCC)CCCCCC | 0.78 ± 0.05 | 0.82 ± 0.05 | 0.9 ± 0.06 | 0.97 ± 0.06 | 
6 | c1ccsc1 [thiophene] + CC(CC(C)(C)C)CP(=O)([O-])CC(C)CC(C)(C)C.CCCCCCCCCCCCCC[P+](CCCCCC)(CCCCCC)CCCCCC | 0.35 ± 0.03 | 0.4 ± 0.03 | 0.41 ± 0.03 | 0.44 ± 0.04 | 
7 | C=CCCCCCCCC [1-decene] + CC(CC(C)(C)C)CP(=O)([O-])CC(C)CC(C)(C)C.CCCCCCCCCCCCCC[P+](CCCCCC)(CCCCCC)CCCCCC | 0.98 ± 0.06 | 1.04 ± 0.07 | 1.15 ± 0.07 | 1.18 ± 0.08 | 
8 | CCCO [propan-1-ol] + CC(CC(C)(C)C)CP(=O)([O-])CC(C)CC(C)(C)C.CCCCCCCCCCCCCC[P+](CCCCCC)(CCCCCC)CCCCCC |  | 0.07 ± 0.03 | 0.08 ± 0.03 | 0.09 ± 0.03 | 
9 | Cc1ccc(C)cc1 [1,4-dimethylbenzene] + CC(CC(C)(C)C)CP(=O)([O-])CC(C)CC(C)(C)C.CCCCCCCCCCCCCC[P+](CCCCCC)(CCCCCC)CCCCCC | 0.6 ± 0.04 | 0.63 ± 0.04 | 0.65 ± 0.04 | 0.69 ± 0.05 | 
10 | C1CCCCCCC1 [cyclooctane] + CC(CC(C)(C)C)CP(=O)([O-])CC(C)CC(C)(C)C.CCCCCCCCCCCCCC[P+](CCCCCC)(CCCCCC)CCCCCC | 0.7 ± 0.05 | 0.71 ± 0.05 | 0.77 ± 0.05 | 0.79 ± 0.05 | 
11 | C1CCOC1 [tetrahydrofuran] + CC(CC(C)(C)C)CP(=O)([O-])CC(C)CC(C)(C)C.CCCCCCCCCCCCCC[P+](CCCCCC)(CCCCCC)CCCCCC | 0.43 ± 0.04 | 0.45 ± 0.04 | 0.49 ± 0.04 | 0.52 ± 0.04 | 
12 | CC1CCCCC1 [methylcyclohexane] + CC(CC(C)(C)C)CP(=O)([O-])CC(C)CC(C)(C)C.CCCCCCCCCCCCCC[P+](CCCCCC)(CCCCCC)CCCCCC | 0.64 ± 0.04 | 0.68 ± 0.05 | 0.73 ± 0.05 | 0.78 ± 0.05 | 
13 | CO [methanol] + CC(CC(C)(C)C)CP(=O)([O-])CC(C)CC(C)(C)C.CCCCCCCCCCCCCC[P+](CCCCCC)(CCCCCC)CCCCCC | 0.03 | 0.04 | 0.05 | 0.06 | 
14 | C1=CCCCC1 [cyclohexene] + CC(CC(C)(C)C)CP(=O)([O-])CC(C)CC(C)(C)C.CCCCCCCCCCCCCC[P+](CCCCCC)(CCCCCC)CCCCCC | 0.57 ± 0.04 | 0.59 ± 0.04 | 0.64 ± 0.04 | 0.68 ± 0.05 | 
15 | C=CCCCCC [1-heptene] + CC(CC(C)(C)C)CP(=O)([O-])CC(C)CC(C)(C)C.CCCCCCCCCCCCCC[P+](CCCCCC)(CCCCCC)CCCCCC | 0.77 ± 0.05 | 0.81 ± 0.05 | 0.88 ± 0.06 | 0.95 ± 0.06 | 
16 | CCC(C)=O [butanone] + CC(CC(C)(C)C)CP(=O)([O-])CC(C)CC(C)(C)C.CCCCCCCCCCCCCC[P+](CCCCCC)(CCCCCC)CCCCCC | 0.65 ± 0.04 | 0.67 ± 0.05 | 0.72 ± 0.05 | 0.77 ± 0.05 | 
17 | Cc1cccc(C)c1 [1,3-dimethylbenzene] + CC(CC(C)(C)C)CP(=O)([O-])CC(C)CC(C)(C)C.CCCCCCCCCCCCCC[P+](CCCCCC)(CCCCCC)CCCCCC | 0.63 ± 0.04 | 0.65 ± 0.04 | 0.67 ± 0.05 | 0.7 ± 0.05 | 
18 | CCCCCCCCCC [decane] + CC(CC(C)(C)C)CP(=O)([O-])CC(C)CC(C)(C)C.CCCCCCCCCCCCCC[P+](CCCCCC)(CCCCCC)CCCCCC | 1.22 ± 0.08 | 1.28 ± 0.08 | 1.33 ± 0.09 | 1.39 ± 0.09 | 
19 | CC#N [acetonitrile] + CC(CC(C)(C)C)CP(=O)([O-])CC(C)CC(C)(C)C.CCCCCCCCCCCCCC[P+](CCCCCC)(CCCCCC)CCCCCC | 1.34 ± 0.09 | 1.4 ± 0.09 | 1.41 ± 0.09 | 1.46 ± 0.1 | 
20 | CC(C)=O [acetone] + CC(CC(C)(C)C)CP(=O)([O-])CC(C)CC(C)(C)C.CCCCCCCCCCCCCC[P+](CCCCCC)(CCCCCC)CCCCCC | 0.7 ± 0.05 | 0.72 ± 0.05 | 0.78 ± 0.05 | 0.83 ± 0.05 | 
21 | C=CCCCCCCC [1-nonene] + CC(CC(C)(C)C)CP(=O)([O-])CC(C)CC(C)(C)C.CCCCCCCCCCCCCC[P+](CCCCCC)(CCCCCC)CCCCCC | 0.91 ± 0.06 | 0.95 ± 0.06 | 1.08 ± 0.07 | 1.14 ± 0.07 | 
22 | O [water] + CC(CC(C)(C)C)CP(=O)([O-])CC(C)CC(C)(C)C.CCCCCCCCCCCCCC[P+](CCCCCC)(CCCCCC)CCCCCC | 0.26 ± 0.03 | 0.27 ± 0.03 | 0.3 ± 0.03 | 0.31 ± 0.03 | 
23 | CCCCCC [hexane] + CCCCCCCCCCCCCCCC |  |  |  |  | 0.874 ± 0.056
24 | Cc1ccccc1 [toluene] + CC(CC(C)(C)C)CP(=O)([O-])CC(C)CC(C)(C)C.CCCCCCCCCCCCCC[P+](CCCCCC)(CCCCCC)CCCCCC | 0.5 ± 0.04 | 0.51 ± 0.04 | 0.56 ± 0.04 | 0.59 ± 0.04 | 
25 | c1ccccc1 [benzene] + CC(CC(C)(C)C)CP(=O)([O-])CC(C)CC(C)(C)C.CCCCCCCCCCCCCC[P+](CCCCCC)(CCCCCC)CCCCCC | 0.42 ± 0.04 | 0.45 ± 0.04 | 0.49 ± 0.04 | 0.52 ± 0.04 | 
26 | CCO [ethanol] + CC(CC(C)(C)C)CP(=O)([O-])CC(C)CC(C)(C)C.CCCCCCCCCCCCCC[P+](CCCCCC)(CCCCCC)CCCCCC |  | 0.04 | 0.06 | 0.07 ± 0.03 | 
27 | Cc1ccccc1C [1,2-dimethylbenzene] + CC(CC(C)(C)C)CP(=O)([O-])CC(C)CC(C)(C)C.CCCCCCCCCCCCCC[P+](CCCCCC)(CCCCCC)CCCCCC | 0.6 ± 0.04 | 0.62 ± 0.04 | 0.64 ± 0.04 | 0.67 ± 0.05 | 
